Experimental data published in patent US20240293412A1, “NAMPT ACTIVATORS FOR TREATING METABOLIC AND NEUROLOGICAL DISORDERS” (The Board of Trustees of the University of Illinois, priority 2021, published 2024).

Key:
[1] = system: THP-1 cells; test: cells; conditions: Homo sapiens, THP-1, 24 h; for Emax: read-out: Maximum activation (%)
[2] = molecular target: NAMPT (Homo sapiens (Human), UniProt P43490); test: NAMPT coupled enzyme activity assay; type: biochemical; conditions: NAMPT activation, Table 2; for Emax: read-out: Maximum activation (%)
Sequence of NAMPT (P43490 whole entry): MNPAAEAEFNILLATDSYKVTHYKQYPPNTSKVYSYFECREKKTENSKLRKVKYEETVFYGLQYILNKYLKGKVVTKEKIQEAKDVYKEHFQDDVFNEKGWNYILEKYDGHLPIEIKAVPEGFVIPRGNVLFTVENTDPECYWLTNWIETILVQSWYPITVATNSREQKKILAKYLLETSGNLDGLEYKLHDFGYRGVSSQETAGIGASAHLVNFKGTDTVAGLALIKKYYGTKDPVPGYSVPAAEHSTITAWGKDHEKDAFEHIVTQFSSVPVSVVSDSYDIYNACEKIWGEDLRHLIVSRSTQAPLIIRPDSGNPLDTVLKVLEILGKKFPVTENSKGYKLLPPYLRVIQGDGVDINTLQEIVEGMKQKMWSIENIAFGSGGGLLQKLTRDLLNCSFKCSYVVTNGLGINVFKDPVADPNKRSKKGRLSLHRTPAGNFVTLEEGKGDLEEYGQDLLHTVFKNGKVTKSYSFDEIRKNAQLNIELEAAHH

EC50 [1] [µM] | EC50 [2] [µM] | Emax [2] [%] | Compound | Emax [1] [%]
0.74 |  |  | O=C(NCc1ccc2sccc2c1)[C@H]1CCCN(c2ncnc3nn(-c4ccc(C(F)(F)F)cc4)cc23)C1 | 150
3.2 |  |  | CSc1ccc(CNC(=O)[C@H]2CCCN(c3ncnc4nn(-c5ccc(C)cc5)cc34)C2)cc1 | 202
 | 9.4 | 240 | CSc1ccc(CNC(=O)C2CCN(c3ncnc4nn(-c5ccc(C)cc5)cc34)CC2)cc1 | 
 | > 10 |  | Cc1ccc(-n2cc3c(N4CCCC(C(=O)NCc5cc[nH]n5)C4)ncnc3n2)cc1 (stereo not drawn) | 
 | 0.16 | 186 | Cc1ccc(-n2cc3c(N4CCCC(C(=O)NCc5ccc(N(C)C)cc5)C4)ncnc3n2)cc1 (stereo not drawn) | 
